Like-named read-outs stand apart in the source and are kept apart here.
Key:
[1] = molecular target: T1, YiiP (Escherichia coli, UniProt P69380); conditions: cited from earlier work
[2] = molecular target: T1, YiiP; conditions: cited from earlier work; remark: listed apart in the source
[3] = molecular target: T1, YiiP; conditions: Kd1 145 μM vs Kd2 0.24 μM
Text: Anomalous difference Fourier maps of native crystals were computed using experimental phases and diffraction data collected at the zinc edge.

T1 sequence (P69380 whole entry): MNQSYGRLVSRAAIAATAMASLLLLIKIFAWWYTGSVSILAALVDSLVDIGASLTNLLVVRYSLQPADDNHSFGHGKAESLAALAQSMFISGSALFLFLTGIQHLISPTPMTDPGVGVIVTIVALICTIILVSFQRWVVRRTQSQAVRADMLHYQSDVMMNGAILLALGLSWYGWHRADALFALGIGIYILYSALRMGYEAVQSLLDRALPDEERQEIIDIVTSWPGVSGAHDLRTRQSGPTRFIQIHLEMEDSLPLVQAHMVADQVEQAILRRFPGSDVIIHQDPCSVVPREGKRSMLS

Row | Structure (SMILES) | Zn2+ stoichiometry units per YiiP protomer ([1]; EDTA pre-treated YiiP) | binding affinities, metal binding mapped to D49 and D157 in the transmembrane domain [1] | Kd ([1]; read-out: dissociation constant (Kd, Kd1), low affinity component / site-Z2, low-affinity binding component, intracellular-facing site-Z2) | Kd ([1]; read-out: dissociation constant (Kd, Kd2), high affinity sites / site-Z1, two high affinity Zn2+-binding sites, overall Kd, attributed to site-Z1) | turnover rate of Zn2+ transport across the membrane ([2]; 30-ms timescale) | Km ([2]; read-out: Michaelis-Menten constant (Km) of Zn2+ transport by YiiP) | affinity difference between site-Z1 and Z2 [3]
1 | [Zn+2] [Zn^2+] | 2.6 | submicromolar range | 145 µM | 0.24 µM | 34 s^− | 310 µM | 604 fold
2 | [Cd+2] [Cd^2+] | – | submicromolar range | – | – | – | – | –

From US20090171592A1, “Homology Models of Mammalian Zinc Transporters and Methods of Using Same” (Brookhaven Science Associates, LLC, priority 2007, published 2009)
